Laboratory results from ChEMBL document CHEMBL3352218, “Structural basis for inhibition of mycobacterial and human adenosine kinase by 7-substituted 7-(Het)aryl-7-deazaadenine ribonucleosides” (J Med Chem, 2014).

Tested on: Mycobacterium tuberculosis
Experiment: microbe, parasite or virus in culture
Details: variant bovis BCG, 504 h

## Nc1ncnc2c1c(-c1cccc3c1Oc1ccccc1S3)cn2[C@@H]1O[C@H](CO)[C@@H](O)[C@H]1O
  IC50: 4.53 µM

## Nc1ncnc2c1c(-c1ccc[nH]1)cn2[C@@H]1O[C@H](CO)[C@@H](O)[C@H]1O
  IC50: 7.27 µM

## Nc1ncnc2c1c(-c1ccc3ccccc3c1)cn2[C@@H]1O[C@H](CO)[C@@H](O)[C@H]1O
  IC50: 0.39 µM

## Nc1ncnc2c1c(-c1c[nH]cn1)cn2[C@@H]1O[C@H](CO)[C@@H](O)[C@H]1O
  IC50: > 100 µM

## Nc1ncnc2c1c(-c1cc[nH]c1)cn2[C@@H]1O[C@H](CO)[C@@H](O)[C@H]1O
  IC50: 1.12 µM

## Nc1ncnc2c1c(-c1nccs1)cn2[C@@H]1O[C@H](CO)[C@@H](O)[C@H]1O
  IC50: 2.51 µM

## CC(C)c1cccc(-c2cn([C@@H]3O[C@H](CO)[C@@H](O)[C@H]3O)c3ncnc(N)c23)c1
  IC50: 6.75 µM

## Nc1ncnc2c1c(-c1ccsc1)cn2[C@@H]1O[C@H](CO)[C@@H](O)[C@H]1O
  IC50: 3.93 µM

## Cc1ccc(-c2cn([C@@H]3O[C@H](CO)[C@@H](O)[C@H]3O)c3ncnc(N)c23)cc1C
  IC50: 1.13 µM

## CC(C)(C)c1ccc(-c2cn([C@@H]3O[C@H](CO)[C@@H](O)[C@H]3O)c3ncnc(N)c23)cc1
  IC50: 4.54 µM

## Nc1ncnc2c1c(/C=C/c1ccccc1)cn2[C@@H]1O[C@H](CO)[C@@H](O)[C@H]1O
  IC50: 1.3 µM

## Nc1ncnc2c1c(-c1cccc3c1oc1ccccc13)cn2[C@@H]1O[C@H](CO)[C@@H](O)[C@H]1O
  IC50: 0.19 µM

## Nc1ncnc2c1c(-c1cccc3c1Sc1ccccc1S3)cn2[C@@H]1O[C@H](CO)[C@@H](O)[C@H]1O
  IC50: 44.3 µM

## Nc1ncnc2c1c(-c1cc[nH]n1)cn2[C@@H]1O[C@H](CO)[C@@H](O)[C@H]1O
  IC50: 48 µM

## Nc1ncnc2c1c(-c1cn[nH]c1)cn2[C@@H]1O[C@H](CO)[C@@H](O)[C@H]1O
  IC50: 3.08 µM

## Nc1ncnc2c1c(-c1ncc[nH]1)cn2[C@@H]1O[C@H](CO)[C@@H](O)[C@H]1O
  IC50: > 100 µM

## CC(C)c1ccc(-c2cn([C@@H]3O[C@H](CO)[C@@H](O)[C@H]3O)c3ncnc(N)c23)cc1
  IC50: 5.29 µM

## Nc1ncnc2c1c(-c1ccc(COc3cccc4ccccc34)cc1)cn2[C@@H]1O[C@H](CO)[C@@H](O)[C@H]1O
  IC50: 6.39 µM

## Nc1ncnc2c1c(-c1ccc3c4c(cccc14)CC3)cn2[C@@H]1O[C@H](CO)[C@@H](O)[C@H]1O
  IC50: 1.74 µM

## Nc1ncnc2c1c(-c1cc3ccccc3c3ccccc13)cn2[C@@H]1O[C@H](CO)[C@@H](O)[C@H]1O
  IC50: 1.9 µM

## COc1ccc(-c2cn([C@@H]3O[C@H](CO)[C@@H](O)[C@H]3O)c3ncnc(N)c23)cc1
  IC50: 2.08 µM

## COc1cc(-c2cn([C@@H]3O[C@H](CO)[C@@H](O)[C@H]3O)c3ncnc(N)c23)cc(OC)c1OC
  IC50: 7.05 µM

## CC(C)Oc1ccc(-c2cn([C@@H]3O[C@H](CO)[C@@H](O)[C@H]3O)c3ncnc(N)c23)cc1
  IC50: 3.07 µM

## Nc1ncnc2c1c(-c1ccc(C(F)(F)F)cc1)cn2[C@@H]1O[C@H](CO)[C@@H](O)[C@H]1O
  IC50: 1.16 µM

## C#Cc1cn([C@@H]2O[C@H](CO)[C@@H](O)[C@H]2O)c2ncnc(N)c12
  IC50: 0.13 µM

## CSc1ccc(-c2cn([C@@H]3O[C@H](CO)[C@@H](O)[C@H]3O)c3ncnc(N)c23)cc1
  IC50: 0.36 µM

## Nc1ncnc2c1c(-c1ccc3c(c1)OCO3)cn2[C@@H]1O[C@H](CO)[C@@H](O)[C@H]1O
  IC50: 1.38 µM

## Nc1ncnc2c1c(-c1c[nH]nn1)cn2[C@@H]1O[C@H](CO)[C@@H](O)[C@H]1O
  IC50: 69 µM

## Nc1ncnc2c1c(-c1ccc(-c3ccccc3)cc1)cn2[C@@H]1O[C@H](CO)[C@@H](O)[C@H]1O
  IC50: 1.68 µM

## Nc1ncnc2c1c(-c1ccc(-c3ccc4ccccc4c3)cc1)cn2[C@@H]1O[C@H](CO)[C@@H](O)[C@H]1O
  IC50: 74.4 µM

## Nc1ncnc2c1c(-c1cc3ccccc3o1)cn2[C@@H]1O[C@H](CO)[C@@H](O)[C@H]1O
  IC50: 2.27 µM

## Nc1ncnc2c1c(-c1ccoc1)cn2[C@@H]1O[C@H](CO)[C@@H](O)[C@H]1O
  IC50: 8.31 µM

## Nc1ncnc2c1c(-c1cccc3ccccc13)cn2[C@@H]1O[C@H](CO)[C@@H](O)[C@H]1O
  IC50: 1.87 µM

## Nc1ncnc2c1c(-c1ccccc1)cn2[C@@H]1O[C@H](CO)[C@@H](O)[C@H]1O
  IC50: 1.34 µM
